pEC50: −log10 of the molar value. Starred links: 1 amine or outer side, 2 acyl side, 3 side chain; linkers in the order of their positions; H or OH if unused. Residues, ends and D or L forms follow the SMILES beside them. Groups on a side chain read outwards from the residue. *: point of attachment. C20 diacid = O=C(O)CCCCCCCCCCCCCCCCCCC(=O)*; γGlu = O=C(O)[C@H](CCC(=O)[*:2])N[*:1]; Desaminohistidyl = O=C(CCc1c[nH]cn1)*; Trx = NC[C@H]1CC[C@H](C(=O)O)CC1; AEEA = NCCOCCOCC(=O)O

human serum albumin (HSA), sequence (P02768 25-609): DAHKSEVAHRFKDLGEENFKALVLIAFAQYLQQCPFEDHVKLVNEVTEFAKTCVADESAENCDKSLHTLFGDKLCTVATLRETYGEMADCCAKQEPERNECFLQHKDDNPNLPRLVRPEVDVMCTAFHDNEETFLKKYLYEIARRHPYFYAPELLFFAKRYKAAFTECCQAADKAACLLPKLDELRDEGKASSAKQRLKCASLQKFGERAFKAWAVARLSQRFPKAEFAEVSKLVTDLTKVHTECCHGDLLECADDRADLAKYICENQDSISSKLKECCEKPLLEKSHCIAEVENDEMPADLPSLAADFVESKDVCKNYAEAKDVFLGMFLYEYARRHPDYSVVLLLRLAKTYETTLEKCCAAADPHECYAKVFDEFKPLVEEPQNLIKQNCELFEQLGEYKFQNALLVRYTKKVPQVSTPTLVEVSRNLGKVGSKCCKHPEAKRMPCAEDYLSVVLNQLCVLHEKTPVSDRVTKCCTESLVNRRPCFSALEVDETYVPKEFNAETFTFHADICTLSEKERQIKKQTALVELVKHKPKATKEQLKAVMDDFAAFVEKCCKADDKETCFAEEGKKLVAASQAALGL

One data set addresses human serum albumin (HSA) (Homo sapiens, UniProt P02768). Briefly: Albumin binding affinity, competition scintillation proximity assay.
Conditions: not given
On the technique in general: SPA uses beads or plates that emit light when radiolabelled molecules are held near them.
For `CC[C@H](C)[C@H](NC(=O)[C@H](Cc1ccccc1)NC(=O)[C@H](CCC(=O)O)NC(=O)[C@H](CCCNC(=N)N)NC(=O)[C@H](C)NC(=O)[C@H](C)NC(=O)[C@H](CCC(N)=O)NC(=O)CNC(=O)[C@H](CCC(=O)O)NC(=O)[C@H](CC(C)C)NC(=O)[C@H](Cc1ccc(O)cc1)NC(=O)[C@H](CO)NC(=O)[C@H](CO)NC(=O)[C@@H](NC(=O)[C@H](CC(=O)O)NC(=O)[C@H](CO)NC(=O)[C@@H](NC(=O)[C@H](Cc1ccccc1)NC(=O)[C@@H](NC(=O)CNC(=O)[C@H](CCC(=O)O)NC(=O)[C@H](C)NC(=O)CCc1cnc[nH]1)[C@@H](C)O)[C@@H](C)O)C(C)C)C(=O)N[C@@H](C)C(=O)N[C@@H](Cc1c[nH]c2ccccc12)C(=O)N[C@@H](CC(C)C)C(=O)N[C@H](C(=O)N[C@@H](CCCNC(=N)N)C(=O)NCC(=O)N[C@@H](CCCNC(=N)N)C(=O)NCC(=O)N[C@@H](CCCCNC(=O)COCCOCCNC(=O)COCCOCCNC(=O)CC[C@H](NC(=O)[C@H]1CC[C@H](CNC(=O)CCCCCCCCCCCCCCCCCCC(=O)O)CC1)C(=O)O)C(N)=O)C(C)C` [Example 28], the pEC50 is below 5.70.

`CC[C@H](C)[C@H](NC(=O)[C@H](Cc1ccccc1)NC(=O)[C@H](CCC(=O)O)NC(=O)[C@H](CCCCNC(=O)COCCOCCNC(=O)CC[C@H](NC(=O)CC[C@H](NC(=O)CCCCCNC(=O)CCCS(=O)(=O)NC(=O)CCCCCCCCCCCCCCCc1nnn[nH]1)C(=O)O)C(=O)O)NC(=O)[C@H](C)NC(=O)[C@H](C)NC(=O)[C@H](CCC(N)=O)NC(=O)CNC(=O)[C@H](CCC(=O)O)NC(=O)[C@H](CC(C)C)NC(=O)[C@H](Cc1ccc(O)cc1)NC(=O)[C@H](CO)NC(=O)[C@H](CO)NC(=O)[C@@H](NC(=O)[C@H](CC(=O)O)NC(=O)[C@H](CO)NC(=O)[C@@H](NC(=O)[C@H](Cc1ccccc1)NC(=O)[C@@H](NC(=O)CNC(=O)[C@H](CCC(=O)O)NC(=O)C(C)(C)NC(=O)[C@@H](N)Cc1c[nH]cn1)[C@@H](C)O)[C@@H](C)O)C(C)C)C(=O)N[C@@H](C)C(=O)N[C@@H](Cc1c[nH]c2ccccc12)C(=O)N[C@@H](CC(C)C)C(=O)N[C@H](C(=O)N[C@@H](CCCNC(=N)N)C(=O)NCC(=O)N[C@@H](CCCNC(=N)N)C(N)=O)C(C)C` [Example 41, N-epsilon26-[2-(2-{2-[(S)-4-Carboxy-4-((S)-4-carboxy-4-{6-[4-(16-(1H-tetrazol-5-yl)hexadecanoylsulfamoyl)butyrylamino]hexanoylamino}butyrylamino)butyrylamino]ethoxy}ethoxy)acetyl][Aib8,Arg34]GLP-1-(7-36)amide] had a negative logarithm of the EC50 (pEC50) of 6.52 to 6.82.

Staying with this data set, now noted: human, biotinylated human serum albumin on streptavidin-SPA beads, pH 7.4.
For `CC[C@H](C)[C@H](NC(=O)[C@H](Cc1ccccc1)NC(=O)[C@H](CCC(=O)O)NC(=O)[C@H](CCCNC(=N)N)NC(=O)[C@H](C)NC(=O)[C@H](C)NC(=O)[C@H](CCC(N)=O)NC(=O)[C@H](CCC(=O)O)NC(=O)[C@H](CCC(=O)O)NC(=O)[C@H](CC(C)C)NC(=O)[C@H](Cc1ccc(O)cc1)NC(=O)[C@H](CO)NC(=O)[C@H](CO)NC(=O)[C@@H](NC(=O)[C@H](CC(=O)O)NC(=O)[C@H](CO)NC(=O)[C@@H](NC(=O)[C@H](Cc1ccccc1)NC(=O)[C@@H](NC(=O)CNC(=O)[C@H](CCC(=O)O)NC(=O)[C@H](C)NC(=O)CCc1c[nH]cn1)[C@@H](C)O)[C@@H](C)O)C(C)C)C(=O)N[C@@H](C)C(=O)N[C@@H](Cc1c[nH]c2ccccc12)C(=O)N[C@@H](CC(C)C)C(=O)N[C@H](C(=O)N[C@@H](CCCNC(=N)N)C(=O)NCC(=O)N[C@@H](CCCNC(=N)N)C(=O)NCC(=O)N[C@@H](CCCCNC(=O)COCCOCCNC(=O)COCCOCCNC(=O)CC[C@H](NC(=O)[C@H]1CC[C@H](CNC(=O)CCCCCCCCCCCCCCCCCCC(=O)O)CC1)C(=O)O)C(N)=O)C(C)C` [Example 27, [DesaminoHis7,Glu22,Arg26,Arg34]GLP-1-(7-37)Lys[2-(2-{2-[2-(2-{2-[4-Carboxy-4-({trans-4-[(19-carboxy-nonadecanoylamino)methyl]cyclohexanecarbonyl}amino)butyrylamino]ethoxy}ethoxy)acetylamino]ethoxy}ethoxy)acetyl]-amide] (Desaminohistidyl-AEGTFTSDVSSYLEEQAAREFIAWLVRGRGK([AEEA-AEEA-γGlu-Trx-C20 diacid])-NH2), the EC50 at 20 h fell in the range of 800 to 2000 nM.

In the case of `CC[C@H](C)[C@H](NC(=O)[C@H](Cc1ccccc1)NC(=O)[C@H](CCC(=O)O)NC(=O)[C@H](CCCNC(=N)N)NC(=O)[C@H](C)NC(=O)[C@H](C)NC(=O)[C@H](CCC(N)=O)NC(=O)CNC(=O)[C@H](CCC(=O)O)NC(=O)[C@H](CC(C)C)NC(=O)[C@H](Cc1ccc(O)cc1)NC(=O)[C@H](CO)NC(=O)[C@H](CO)NC(=O)[C@@H](NC(=O)[C@H](CC(=O)O)NC(=O)[C@H](CO)NC(=O)[C@@H](NC(=O)[C@H](Cc1ccccc1)NC(=O)[C@@H](NC(=O)CNC(=O)[C@H](CCC(=O)O)NC(=O)[C@H](C)NC(=O)CCc1c[nH]cn1)[C@@H](C)O)[C@@H](C)O)C(C)C)C(=O)N[C@@H](C)C(=O)N[C@@H](Cc1c[nH]c2ccccc12)C(=O)N[C@@H](CC(C)C)C(=O)N[C@H](C(=O)N[C@@H](CCCNC(=N)N)C(=O)NCC(=O)N[C@@H](CCCNC(=N)N)C(=O)N[C@@H](CCCCNC(=O)COCCOCCNC(=O)COCCOCCNC(=O)CC[C@H](NC(=O)[C@H]1CC[C@H](CNC(=O)CCCCCCCCCCCCCCCCCCC(=O)O)CC1)C(=O)O)C(=O)O)C(C)C` [Example 31, N-epsilon37-[2-(2-{2-[2-(2-{2-[(S)-4-Carboxy-4-({trans-4-[(19-carboxy-nonadecanoylamino)methyl]cyclohexanecarbonyl}amino)butyrylamino]ethoxy}ethoxy)acetylamino]ethoxy}ethoxy)acetyl][DesaminoHis7,Arg26,Arg34,Lys37]GLP-1-(7-37)], the 50% effective concentration (EC50) at 20 h was in the range of 300 to 800 nM.

As for `CC[C@H](C)[C@H](NC(=O)[C@H](Cc1ccccc1)NC(=O)[C@H](CCC(=O)O)NC(=O)[C@H](CCCCNC(=O)COCCOCCNC(=O)CC[C@H](NC(=O)CC[C@H](NC(=O)CCCNC(=O)CCCS(=O)(=O)NC(=O)CCCCCCCCCCCCCCCc1nnn[nH]1)C(=O)O)C(=O)O)NC(=O)[C@H](C)NC(=O)[C@H](C)NC(=O)[C@H](CCC(N)=O)NC(=O)CNC(=O)[C@H](CCC(=O)O)NC(=O)[C@H](CC(C)C)NC(=O)[C@H](Cc1ccc(O)cc1)NC(=O)[C@H](CO)NC(=O)[C@H](CO)NC(=O)[C@@H](NC(=O)[C@H](CC(=O)O)NC(=O)[C@H](CO)NC(=O)[C@@H](NC(=O)[C@H](Cc1ccccc1)NC(=O)[C@@H](NC(=O)CNC(=O)[C@H](CCC(=O)O)NC(=O)C(C)(C)NC(=O)[C@@H](N)Cc1c[nH]cn1)[C@@H](C)O)[C@@H](C)O)C(C)C)C(=O)N[C@@H](C)C(=O)N[C@@H](Cc1c[nH]c2ccccc12)C(=O)N[C@@H](CC(C)C)C(=O)N[C@H](C(=O)N[C@@H](CCCNC(=N)N)C(=O)O)C(C)C` [Example 36, N-epsilon26-[2-(2-{2-[(S)-4-Carboxy-4-((S)-4-carboxy-4-{4-[4-(16-(1H-tetrazol-5-yl)hexadecanoylsulfamoyl)butyrylamino]butyrylamino}butyrylamino)butyrylamino]ethoxy}ethoxy)acetyl][Aib8,Arg34]GLP-1-(7-34)], the EC50 at 20 h was 100 to 150 nM.

`CC[C@H](C)[C@H](NC(=O)[C@H](Cc1ccccc1)NC(=O)[C@H](CCC(=O)O)NC(=O)[C@H](CCCCNC(=O)COCCOCCNC(=O)CC[C@H](NC(=O)CC[C@H](NC(=O)CCCCCCCCCCCNC(=O)CCCS(=O)(=O)NC(=O)CCCCCCCCCCCCCCCc1nnn[nH]1)C(=O)O)C(=O)O)NC(=O)[C@H](C)NC(=O)[C@H](C)NC(=O)[C@H](CCC(N)=O)NC(=O)CNC(=O)[C@H](CCC(=O)O)NC(=O)[C@H](CC(C)C)NC(=O)[C@H](Cc1ccc(O)cc1)NC(=O)[C@H](CO)NC(=O)[C@H](CO)NC(=O)[C@@H](NC(=O)[C@H](CC(=O)O)NC(=O)[C@H](CO)NC(=O)[C@@H](NC(=O)[C@H](Cc1ccccc1)NC(=O)[C@@H](NC(=O)CNC(=O)[C@H](CCC(=O)O)NC(=O)C(C)(C)NC(=O)[C@@H](N)Cc1c[nH]cn1)[C@@H](C)O)[C@@H](C)O)C(C)C)C(=O)N[C@@H](C)C(=O)N[C@@H](Cc1c[nH]c2ccccc12)C(=O)N[C@@H](CC(C)C)C(=O)N[C@H](C(=O)N[C@@H](CCCNC(=N)N)C(=O)O)C(C)C` [Example 37, N-epsilon26-[2-(2-{2-[(S)-4-Carboxy-4-((S)-4-carboxy-4-{12-[4-(16-(1H-tetrazol-5-yl)hexadecanoylsulfamoyl)butyrylamino]-dodecanoylamino}butyrylamino)butyrylamino]ethoxy}ethoxy)acetyl][Aib8,Arg34]GLP-1-(7-34)] gave an EC50 at 20 h of 1 to 100 nM.

With `CC[C@H](C)[C@H](NC(=O)[C@H](Cc1ccccc1)NC(=O)[C@H](CCC(=O)O)NC(=O)[C@H](CCCCNC(=O)COCCOCCNC(=O)CC[C@H](NC(=O)CC[C@H](NC(=O)CCCCCNC(=O)CCCS(=O)(=O)NC(=O)CCCCCCCCCCCCCCCc1nnn[nH]1)C(=O)O)C(=O)O)NC(=O)[C@H](C)NC(=O)[C@H](C)NC(=O)[C@H](CCC(N)=O)NC(=O)CNC(=O)[C@H](CCC(=O)O)NC(=O)[C@H](CC(C)C)NC(=O)[C@H](Cc1ccc(O)cc1)NC(=O)[C@H](CO)NC(=O)[C@H](CO)NC(=O)[C@@H](NC(=O)[C@H](CC(=O)O)NC(=O)[C@H](CO)NC(=O)[C@@H](NC(=O)[C@H](Cc1ccccc1)NC(=O)[C@@H](NC(=O)CNC(=O)[C@H](CCC(=O)O)NC(=O)C(C)(C)NC(=O)[C@@H](N)Cc1c[nH]cn1)[C@@H](C)O)[C@@H](C)O)C(C)C)C(=O)N[C@@H](C)C(=O)N[C@@H](Cc1c[nH]c2ccccc12)C(=O)N[C@@H](CC(C)C)C(=O)N[C@H](C(=O)N[C@@H](CCCNC(=N)N)C(=O)O)C(C)C` [Example 38, N-epsilon26-[2-(2-{2-[(S)-4-Carboxy-4-((S)-4-carboxy-4-{6-[4-(16-(1H-tetrazol-5-yl)hexadecanoylsulfamoyl)butyrylamino]hexanoylamino}butyrylamino)butyrylamino]ethoxy}ethoxy)acetyl][Aib8,Arg34]GLP-1-(7-34)], the EC50 at 20 h fell in the range of 1 to 100 nM.

The term pEC50 denotes the EC50 on a negative log10 scale, so that one unit is a factor of ten. A lower pEC50 goes with a high EC50. Broadly, the EC50 is the concentration at which the effect is half-maximal. Low values mean an effect from little substance, high ones a need for much substance.
